Laboratory results: patent publication US20170218375A1, “MORPHOLINOS, MORPHOLINO UPREGULATING, AND ASSOCIATED METHODS” (University of Utah Research Foundation, priority 2011, published 2017)
{Dendrimer} = dendrimer conjugate (vivo-morpholino)

How the values were obtained:
sVEGFR2 mRNA = test: RT-PCR of sVEGFR2 mRNA in mouse MS-1 cell line; type: cell-based
Excerpt: Because VEGFR2_MOe13 decreases mbVEGFR2 and increases sVEGFR2, it is expected that VEGFR2_MOe13 can inhibit angiogenesis and lymphangiogenesis in vivo. To study the effect of VEGFR2_MOe13 in animal models, moVEGFR2_MOe13 was created that targets the exon13-intron13 junction of the mouse VEGFR2 gene. By RT-PCR analysis, it was found moVEGFR2_MOe13 increased sVEGFR2 mRNA and decreased mbVEGFR2 mRNA in the mouse MS-1 cell line (FIG. 7A). […] FIGS. 7(f, g) show the mean area of corneal neovascularization and lymphangiogenesis respectively (n=13-16). Risk factors (p-value) were calculated by two-tail student's t-test (*: p<0.05, **p<0.01, ***p<0.001). Error bar is ±s.e.m.
Each morpholino oligomer was purchased from Gene Tools (Philomath, Oreg.). The sequences of each morpholino oligomer and primers for PCR are listed in supplemental Table. […] The cells were washed three times and fluorescence was detected by a FACScan Analyzer (BD Biosciences, San Jose, Calif.). […]
cDNAs were synthesized from 400 ng total RNA using Omniscript RT kit (Qiagen, Valencia, Calif.) and Oligo-dT primer(dT20) according to the manufacturer's instructions. Real-time PCR was performed using QuantiTect SYBR Green PCR Kit (Qiagen, Valencia, Calif.) and 1 μl of cDNA. […]

sVEGFR2 protein = test: Western blot for sVEGFR2 from mouse ocular solution after intravitreous injection; type: in vivo; conditions: 2 μl of 100 ng/μl intravitreously on day 0 and day 3, western blot on day 4
Excerpt: (§1) To administer morpholinos in vivo, morpholino conjugated with a dendrimer at the 3′ position (vivo-morpholino) was used for animal experiments. It should be understood that this technique is merely exemplary, and any other method of administration is considered to be within the present scope. […] Next, the protein level of mbVEGFR2 and sVEGFR2 in the retina and the ocular solution was examined by western blot. Consistent with real-time PCR results, moVEGFR2_MOe13 decreased mbVEGFR2 protein in the retina (FIG. 7C) and increased sVEGFR2 protein in the ocular solution (FIG. 7D).
(§2) To examine whether moVEGFR2_MOe13 could work in the mouse eye, on day 0 and day 3 2 μl of 100 ng/μl moVEGFR2_MOe13 or STD_MO or DPBS were injected intravitreously. On day 4, retinal total RNA was extracted with RNeasy mini kit with DNaseI treatment. sVEGFR2 and mbVEGFR2 mRNA expression were determined by the method described above. For western blot of mbVEGFR2, on day 4, retina was dissolved in RIPA buffer. For western blot of sVEGFR2, on 4 day, intraocular solution was obtained from 6 eyes by pipette. After centrifuge, supernatant was used for further experiment. For western blot, biotin-conjugated anti-VEGFR2 (BAF644, R&D Systems, Minneapolis, Minn.) was used at 1 μg/μl.

mbVEGFR2 protein = test: Western blot for mbVEGFR2 from mouse retinal protein after intravitreous injection; type: in vivo; conditions: 2 μl of 100 ng/μl intravitreously on day 0 and day 3, western blot on day 4
Excerpt: as §1, §2

## 5′-cacccagggatgcctccatacCTAG-3′ (antisense CACCCAGGGATGCCTCCATACCTAG; all phosphorodiamidate morpholino (PMO), 3' {Dendrimer}) [moVEGFR2_MOe13, morpholino that targets the exon13-intron13 junction of the mouse VEGFR2 gene; in vivo conjugated with a dendrimer (vivo-morpholino)]
sVEGFR2 mRNA
  sVEGFR2 mRNA by RT-PCR: increased
sVEGFR2 protein
  sVEGFR2 protein in the ocular solution: increased
mbVEGFR2 protein
  mbVEGFR2 protein in the retina: decreased
